Data taken from patent US9993494B2, “Compositions and methods for treating fibrotic disease” (eFFECTOR Therapeutics, Inc., priority 2014, dated 2018).

System: normal human lung fibroblasts
Assay: Ribosomal profiling: translational efficiency in TGFβ-treated fibroblasts
Assay type: cell-based
Outline: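 Cells lysed on ice after a cold PBS wash containing cycloheximide. Ribosome-protected fragments and total mRNA were prepared with the ARTseq kit and sequenced by RNA-Seq. Reads were trimmed, mapped to the human genome and counted uniquely over coding regions per gene, with low-count genes excluded before differential translational-efficiency analysis.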

TGFβ
change in translational profile of CTPS caused by TGFβ (ENSG00000171793, Control vs. TGFβ): D (D = <1.0 to 1.5)
Log2 TE RPS21 (ENSG00000171858, 5 replicates): 1.846
Log2 TE RPS7 (ENSG00000171863, 5 replicates): 1.549
Log2 TE QARS (ENSG00000172053, 5 replicates): 1.362
change in translational profile of QARS caused by TGFβ (ENSG00000172053, Control vs. TGFβ): D (D = <1.0 to 1.5)
Log2 TE RPL38 (ENSG00000172809, 5 replicates): 1.353
change in translational profile of RPL38 caused by TGFβ (ENSG00000172809, Control vs. TGFβ): E (E = <1.5 to 2.5)
Log2 TE HSPB7 (ENSG00000173641, 5 replicates): 1.292
change in translational profile of MRPL45 caused by TGFβ (ENSG00000174100, Control vs. TGFβ): D (D = <1.0 to 1.5)
Log2 TE EVX2 (ENSG00000174279, 5 replicates): 2.887
Log2 TE RPL4 (ENSG00000174444, 5 replicates): 1.688
change in translational profile of RPL4 caused by TGFβ (ENSG00000174444, Control vs. TGFβ): E (E = <1.5 to 2.5)
Log2 TE RPL15 (ENSG00000174748, 5 replicates): 1.254
change in translational profile of RPL15 caused by TGFβ (ENSG00000174748, Control vs. TGFβ): D (D = <1.0 to 1.5)
Log2 TE DES (ENSG00000175084, 5 replicates): 1.204
change in translational profile of DES caused by TGFβ (ENSG00000175084, Control vs. TGFβ): E (E = <1.5 to 2.5)
Log2 TE CST6 (ENSG00000175315, 5 replicates): 1.241
Log2 TE EIF3F (ENSG00000175390, 5 replicates): 1.29
change in translational profile of EIF3F caused by TGFβ (ENSG00000175390, Control vs. TGFβ): D (D = <1.0 to 1.5)
Log2 TE CLCF1 (ENSG00000175505, 5 replicates): 1.594
change in translational profile of CLCF1 caused by TGFβ (ENSG00000175505, Control vs. TGFβ): E (E = <1.5 to 2.5)
Log2 TE AMIGO3 (ENSG00000176020, 5 replicates): −1.314
change in translational profile of AMIGO3 caused by TGFβ (ENSG00000176020, Control vs. TGFβ): C (C = <−1.0 to −1.5)
Log2 TE C14orf49 (ENSG00000176438, 5 replicates): −1.044
change in translational profile of C14orf49 caused by TGFβ (ENSG00000176438, Control vs. TGFβ): C (C = <−1.0 to −1.5)
Log2 TE RPLP2 (ENSG00000177600, 5 replicates): 1.694
change in translational profile of RPLP2 caused by TGFβ (ENSG00000177600, Control vs. TGFβ): E (E = <1.5 to 2.5)
Log2 TE RPS27 (ENSG00000177954, 5 replicates): 1.429
change in translational profile of IMPDH2 caused by TGFβ (ENSG00000178035, Control vs. TGFβ): D (D = <1.0 to 1.5)
Log2 TE DNAJC22 (ENSG00000178401, 5 replicates): −1.189
change in translational profile of DNAJC22 caused by TGFβ (ENSG00000178401, Control vs. TGFβ): B (B = <−1.5 to −2.5)
Log2 TE YOD1 (ENSG00000180667, 5 replicates): 1.146
Log2 TE PGBD4 (ENSG00000182405, 5 replicates): 1.055
Log2 TE RPL35A (ENSG00000182899, 5 replicates): 1.627
change in translational profile of RPL35A caused by TGFβ (ENSG00000182899, Control vs. TGFβ): E (E = <1.5 to 2.5)
change in translational profile of LENG9 caused by TGFβ (ENSG00000182909, Control vs. TGFβ): D (D = <1.0 to 1.5)
change in translational profile of C22orf32 caused by TGFβ (ENSG00000183172, Control vs. TGFβ): D (D = <1.0 to 1.5)
Log2 TE CHEK2 (ENSG00000183765, 5 replicates): −1.457
change in translational profile of NPW caused by TGFβ (ENSG00000183971, Control vs. TGFβ): D (D = <1.0 to 1.5)
Log2 TE ALDH1A3 (ENSG00000184254, 5 replicates): −1.327
Log2 TE PDE4B (ENSG00000184588, 5 replicates): −2.021
change in translational profile of PDE4B caused by TGFβ (ENSG00000184588, Control vs. TGFβ): B (B = <−1.5 to −2.5)
Log2 TE CDCA2 (ENSG00000184661, 5 replicates): −1.573
Log2 TE 5-Sep (ENSG00000184702, 5 replicates): 1.209
change in translational profile of ROBO2 caused by TGFβ (ENSG00000185008, Control vs. TGFβ): C (C = <−1.0 to −1.5)
Log2 TE SEMA4B (ENSG00000185033, 5 replicates): −1.413
Log2 TE SH3BGR (ENSG00000185437, 5 replicates): 1.121
change in translational profile of PTCH1 caused by TGFβ (ENSG00000185920, Control vs. TGFβ): D (D = <1.0 to 1.5)
Log2 TE POLR1D (ENSG00000186184, 5 replicates): 1.23
change in translational profile of POLR1D caused by TGFβ (ENSG00000186184, Control vs. TGFβ): E (E = <1.5 to 2.5)
Log2 TE RPS23 (ENSG00000186468, 5 replicates): 1.302
Log2 TE DYNC2H1 (ENSG00000187240, 5 replicates): −1.228
change in translational profile of DYNC2H1 caused by TGFβ (ENSG00000187240, Control vs. TGFβ): B (B = <−1.5 to −2.5)
Log2 TE TET3 (ENSG00000187605, 5 replicates): 1.541
Log2 TE ZSCAN23 (ENSG00000187987, 5 replicates): −1.048
Log2 TE RPL14 (ENSG00000188846, 5 replicates): 1.745
change in translational profile of RPL14 caused by TGFβ (ENSG00000188846, Control vs. TGFβ): E (E = <1.5 to 2.5)
change in translational profile of LRRK2 caused by TGFβ (ENSG00000188906, Control vs. TGFβ): C (C = <−1.0 to −1.5)
Log2 TE ZNF33A (ENSG00000189180, 5 replicates): −1.058
Log2 TE KIAA0408 (ENSG00000189367, 5 replicates): −1.283
Log2 TE ZBTB44 (ENSG00000196323, 5 replicates): −1.222
Log2 TE NACA (ENSG00000196531, 5 replicates): 1.083
change in translational profile of NACA caused by TGFβ (ENSG00000196531, Control vs. TGFβ): E (E = <1.5 to 2.5)
Log2 TE ADH1B (ENSG00000196616, 5 replicates): −2.795
Log2 TE TOMM7 (ENSG00000196683, 5 replicates): 1.126
change in translational profile of LAMB3 caused by TGFβ (ENSG00000196878, Control vs. TGFβ): D (D = <1.0 to 1.5)
Log2 TE PCBP2 (ENSG00000197111, 5 replicates): 1.293
change in translational profile of PCBP2 caused by TGFβ (ENSG00000197111, Control vs. TGFβ): E (E = <1.5 to 2.5)
Log2 TE MAP3K5 (ENSG00000197442, 5 replicates): −2.0153
change in translational profile of MAP3K5 caused by TGFβ (ENSG00000197442, Control vs. TGFβ): B (B = <−1.5 to −2.5)
Log2 TE RPS26 (ENSG00000197728, 5 replicates): 1.09
Log2 TE RPL37A (ENSG00000197756, 5 replicates): 2.029
change in translational profile of RPL37A caused by TGFβ (ENSG00000197756, Control vs. TGFβ): E (E = <1.5 to 2.5)
Log2 TE RPL12 (ENSG00000197958, 5 replicates): 1.878
change in translational profile of RPL12 caused by TGFβ (ENSG00000197958, Control vs. TGFβ): E (E = <1.5 to 2.5)
Log2 TE DNM3 (ENSG00000197959, 5 replicates): −1.161
Log2 TE RPS4X (ENSG00000198034, 5 replicates): 1.534
Log2 TE LPAR1 (ENSG00000198121, 5 replicates): −1.448
change in translational profile of LPAR1 caused by TGFβ (ENSG00000198121, Control vs. TGFβ): C (C = <−1.0 to −1.5)
Log2 TE ZNF607 (ENSG00000198182, 5 replicates): −1.108
Log2 TE RPL23A (ENSG00000198242, 5 replicates): 1.395
change in translational profile of RPL23A caused by TGFβ (ENSG00000198242, Control vs. TGFβ): E (E = <1.5 to 2.5)
Log2 TE TPM2 (ENSG00000198467, 5 replicates): 1.077
change in translational profile of PLN caused by TGFβ (ENSG00000198523, Control vs. TGFβ): F (F = >2.5)
Log2 TE RPL10A (ENSG00000198755, 5 replicates): 1.51
change in translational profile of RPL10A caused by TGFβ (ENSG00000198755, Control vs. TGFβ): E (E = <1.5 to 2.5)
Log2 TE CES1 (ENSG00000198848, 5 replicates): 1.084
change in translational profile of CES1 caused by TGFβ (ENSG00000198848, Control vs. TGFβ): E (E = <1.5 to 2.5)
Log2 TE RPL39 (ENSG00000198918, 5 replicates): 1.536
change in translational profile of RPL39 caused by TGFβ (ENSG00000198918, Control vs. TGFβ): E (E = <1.5 to 2.5)
Log2 TE GPRASP1 (ENSG00000198932, 5 replicates): −1.239
Log2 TE RORB (ENSG00000198963, 5 replicates): −1.766
Log2 TE CARD16 (ENSG00000204397, 5 replicates): −1.076
change in translational profile of CARD16 caused by TGFβ (ENSG00000204397, Control vs. TGFβ): B (B = <−1.5 to −2.5)
Log2 TE MICA (ENSG00000204520, 5 replicates): 1.143
change in translational profile of MICA caused by TGFβ (ENSG00000204520, Control vs. TGFβ): E (E = <1.5 to 2.5)
Log2 TE GNB2L1 (ENSG00000204628, 5 replicates): 1.732
change in translational profile of GNB2L1 caused by TGFβ (ENSG00000204628, Control vs. TGFβ): E (E = <1.5 to 2.5)
Log2 TE RPS29 (ENSG00000213741, 5 replicates): 1.571
Log2 TE RPL17 (ENSG00000215472, 5 replicates): 1.299
change in translational profile of RPL17 caused by TGFβ (ENSG00000215472, Control vs. TGFβ): E (E = <1.5 to 2.5)
Log2 TE UBA52 (ENSG00000221983, 5 replicates): 1.125
Log2 TE BTBD19 (ENSG00000222009, 5 replicates): 1.524
Log2 TE RPL41 (ENSG00000229117, 5 replicates): 1.474
change in translational profile of RPL41 caused by TGFβ (ENSG00000229117, Control vs. TGFβ): E (E = <1.5 to 2.5)
Log2 TE RPS18 (ENSG00000231500, 5 replicates): 2.003
Log2 TE C17orf108 (ENSG00000232859, 5 replicates): −1.329
Log2 TE RPS28 (ENSG00000233927, 5 replicates): 1.937
Log2 TE ARPC1A (ENSG00000241685, 5 replicates): 1.288
change in translational profile of ARPC1A caused by TGFβ (ENSG00000241685, Control vs. TGFβ): D (D = <1.0 to 1.5)
Log2 TE IFITM10 (ENSG00000244242, 5 replicates): −1.299
Log2 TE FMN1 (ENSG00000248905, 5 replicates): −1.906
Log2 TE CHCHD10 (ENSG00000250479, 5 replicates): 2.519
change in translational profile of CHCHD10 caused by TGFβ (ENSG00000250479, Control vs. TGFβ): F (F = >2.5)
Log2 TE SEPP1 (ENSG00000250722, 5 replicates): −1.035
Log2 TE EEF1G (ENSG00000254772, 5 replicates): 1.551
change in translational profile of EEF1G caused by TGFβ (ENSG00000254772, Control vs. TGFβ): E (E = <1.5 to 2.5)
Log2 TE TEN1 (ENSG00000257949, 5 replicates): 1.361
